Counter-ions that a name gives are not always drawn.
Row | SMILES | melting point
1 | C#CCn1ccc2c(N3CCN(CCc4c[nH]c5cc(Cl)ccc45)CC3)cccc21 | 197 to 199 °C
2 | C#CCn1ccc2c(N3CCN(CCc4c[nH]c5ccc(F)cc45)CC3)cccc21 | 153 to 155 °C
3 | C#CCn1ccc2c(N3CCN(CCc4c[nH]c5ccc(Br)cc45)CC3)cccc21 | 154 to 156 °C
4 | C=CCn1ccc2c(N3CCN(CCc4c[nH]c5ccc(F)cc45)CC3)cccc21 (as salt: fumarate) | 210 to 212 °C
5 | C#CCn1ccc2c(N3CCN(CCc4c[nH]c5ccccc45)CC3)cccc21 (as salt: fumarate) | 193 to 195 °C
6 | Fc1ccc2[nH]cc(CCN3CCN(c4cccc5[nH]ccc45)CC3)c2c1 (as salt: fumarate) [Compound 2c, 1-(2-(5-Fluoro-1H-indol-3-yl)ethyl)-4-(1H-indol-4-yl)piperazine] | 212 to 215 °C
7 | Clc1ccc2c(CCN3CC=C(c4cccc5[nH]ccc45)CC3)c[nH]c2c1 (as salt: fumarate) [Compound 2g, 1-(2-(6-Chloro-1H-indol-3-yl)ethyl)-4-(1H-indol-4-yl)-1,2,3,6-tetrahydropyridine] | 225 to 226 °C
8 | Fc1ccc2[nH]cc(CCN3CC=C(c4cccc5[nH]ccc45)CC3)c2c1 (as salt: fumarate) [Compound 2h, 1-(2-(5-Fluoro-1H-indol-3-yl)ethyl)-4-(1H-indol-4-yl)-1,2,3,6-tetrahydropyridine] | 204 to 206 °C
9 | Fc1ccc2[nH]cc(CCN3CCN(c4cccc5c4ccn5Cc4ccccc4)CC3)c2c1 (as salt: fumarate) [Compound 2m, 1-(1-Benzyl-1H-indol-4-yl)-4-(2-(5-fluoro-1H-indol-3-yl)ethyl)piperazine] | 178 to 180 °C
10 | c1ccc(Cn2ccc3c(N4CCN(CCc5c[nH]c6ccccc56)CC4)cccc32)cc1 (as salt: fumarate) [Compound 2s, 1-(1-Benzyl-1H-indol-4-yl)-4-(2-(1H-indol-3-yl)ethyl)piperazine] | 188 to 190 °C
11 | Brc1ccc2[nH]cc(CCN3CCN(c4ccc5[nH]ccc5c4)CC3)c2c1 (as salt: fumarate) [Compound 2t, 1-(2-(5-Bromo-1H-indol-3-yl)ethyl)-4-(1H-indol-5-yl)piperazine] | 231 to 233 °C
12 | Clc1ccc2[nH]cc(CCN3CCN(c4ccc5[nH]ccc5c4)CC3)c2c1 (as salt: fumarate) [Compound 2u, 1-(2-(5-Chloro-1H-indol-3-yl)ethyl)-4-(1H-indol-5-yl)piperazine] | 232 to 234 °C
13 | N#Cc1c[nH]c2cccc(N3CCN(CCc4c[nH]c5ccccc45)CC3)c12 (as salt: fumarate) [Compound 4m, 1-(3-Cyano-1H-indol-4-yl)-4-(2-(1H-indol-3-yl)ethyl)piperazine] | > 250 °C
14 | N#Cc1c[nH]c2cccc(N3CCN(CCc4coc5ccc(F)cc45)CC3)c12 (as salt: fumarate) [Compound 4n, 1-(3-Cyano-1H-indol-4-yl)-4-(2-(5-fluoro-3-benzofuranyl)ethyl)piperazine] | 235 to 237 °C
15 | N#Cc1c[nH]c2cccc(N3CCN(CCc4c[nH]c5cc(Cl)ccc45)CC3)c12 (as salt: fumarate) [Compound 4o, 1-(2-(6-Chloro-1H-indol-3-yl)ethyl)-4-(3-cyano-1H-indol-4-yl)piperazine] | 234 to 236 °C
16 | Fc1ccc2occ(CCCN3CC=C(c4cccc5[nH]ccc45)CC3)c2c1 (as salt: fumarate) [Compound 4s, 1-(3-(5-Fluoro-3-benzofuranyl)-1-propyl)-4-(1H-indol-4-yl)-1,2,3,6-tetrahydropyridine] | 183 to 185 °C
17 | N#Cc1c[nH]c2cccc(N3CCN(CCc4c[nH]c5cccc(Cl)c45)CC3)c12 (as salt: fumarate) [Compound 4x, 1-(2-(4-Chloro-1H-indol-3-yl)ethyl)-4-(3-cyano-1H-indol-4-yl)piperazine] | > 250 °C
18 | Fc1ccc2occ(CCCCN3CCN(c4cccc5[nH]ccc45)CC3)c2c1 (as salt: hydrochloride) [Compound 1d, 1-(4-(5-Fluoro-3-benzofuranyl)-1-butyl)-4-(1H-indol-4-yl)piperazine] | 241 to 244 °C
19 | Fc1ccc2occ(CCCN3CCN(c4cccc5[nH]ccc45)CC3)c2c1 (as salt: hydrochloride) [Compound 1h, 1-(3-(5-Fluoro-3-benzofuranyl)-1-propyl)-4-(1H-indol-4-yl)piperazine] | 230 to 234 °C
20 | Cc1oc2c(F)c(F)c(F)c(F)c2c1CCN1CCN(c2cccc3[nH]ccc23)CC1 (as salt: hydrochloride) [Compound 1i, 1-(2-(2-Methyl-4,5,6,7-tetrafluoro-3-benzofuranyl)ethyl)-4-(1H-indol-4-yl)piperaziine] | 181 to 187 °C

Row | SMILES | melting point
21 | Fc1ccc2occ(CN3CCN(c4cccc5[nH]ccc45)CC3)c2c1 (as salt: hydrochloride) [Compound 4l, 1-(5-Fluoro-3-benzofuranylmethyl)-4-(1H-indol-4-4-yl)piperazine] | 238 to 240 °C
22 | Cc1ccc2occ(CCN3CCN(c4cccc5[nH]ccc45)CC3)c2c1 (as salt: hydrochloride) [Compound 4q, 1-(1H-Indol-4-yl)-4-(2-(5-methyl-3-benzofuranyl)ethyl)piperazine] | 258 to 260 °C
23 | c1cc(N2CCN(Cc3coc4ccccc34)CC2)c2cc[nH]c2c1 (as salt: oxalate) [Compound 1b, 1-(3-Benzofuranylmethyl)-4-(1H-indol-4-yl)piperazine] | 226 to 228 °C
24 | Fc1ccc2occ(CCN3CCN(c4cccc5[nH]ccc45)CC3)c2c1 (as salt: oxalate) [Compound 1c, 1-(2-(5-Fluoro-3-benzofuranyl)ethyl)-4-(1H-indol-4-yl)piperazine] | 196 to 197 °C
25 | c1ccc2c(CCN3CCN(c4cccc5[nH]ccc45)CC3)c[nH]c2c1 (as salt: oxalate) [Compound 1e, 1-(2-(1H-indol-3-yl)ethyl)-4-(1H-indol-4-yl)piperazine] | 167 to 169 °C
26 | c1ccc2c(CCCN3CCN(c4cccc5[nH]ccc45)CC3)c[nH]c2c1 (as salt: oxalate) [Compound 1f, 1-(3-(1H-indol-3-yl)-1-propyl)-4-(1H-indol-4-yl)piperazine] | 198 to 204 °C
27 | c1ccc2c(CCCCN3CCN(c4cccc5[nH]ccc45)CC3)c[nH]c2c1 (as salt: oxalate) [Compound 1g, 1-(4-(1H-indol-3-yl)-1-butyl)-4-(1H-indol-4yl)piperazine] | 189 to 193 °C
28 | c1cc(N2CCN(CCc3n[nH]c4ccccc34)CC2)c2cc[nH]c2c1 (as salt: oxalate) [Compound 1j, 1-(2-(3-Indazolyl)ethyl)-4-(1H-indol-4-yl)piperazine] | 149 to 151 °C
29 | Clc1ccc2c(CCN3CCN(c4cccc5[nH]ccc45)CC3)n[nH]c2c1 (as salt: oxalate) [Compound 1k, 1-(2-(6-Chloro-3-indazolyl)ethyl)-4-(1H-indol-4-yl)piperazine] | 255 to 258 °C
30 | N#Cc1cccc2c(CCN3CCN(c4cccc5[nH]ccc45)CC3)c[nH]c12 (as salt: oxalate) [Compound 1l, 1-(2-(7-Cyano-1H-indol-3-yl)ethyl)-4-(1H-indol-4-yl)piperazine] | 241 to 243 °C
31 | Clc1cccc2[nH]cc(CCN3CCN(c4cccc5[nH]ccc45)CC3)c12 (as salt: oxalate) [Compound 2b, 1-(2-(4-Chloro-1H-indol-3-yl)ethyl)-4-(1H-indol-4-yl)piperazine] | 245 to 247 °C
32 | Brc1cccc2c(CCN3CCN(c4cccc5[nH]ccc45)CC3)c[nH]c12 (as salt: oxalate) [Compound 2i, 1-(2-(7-Bromo-1H-indol-3-yl)ethyl)-4-(1H-indol-4-yl)piperazine] | 149 to 151 °C
33 | COC(=O)c1cc(N2CCN(CCc3c[nH]c4ccccc34)CC2)c2cc[nH]c2c1 (as salt: oxalate) [Compound 4f, 1-(2-(1H-indol-3-yl)ethyl)-4-(6-methoxycarbonyl-1H-indol-4-yl)piperazine] | 213 to 216 °C
34 | COC(=O)c1cc(N2CCN(CCc3c[nH]c4cc(Cl)ccc34)CC2)c2cc[nH]c2c1 (as salt: oxalate) [Compound 4g, 1-(2-(6-Chloro-1H-indol-3-yl)ethyl)-4-(6-methoxycarbonyl-1-H-indol-4-yl)piperazine] | 228 to 230 °C
35 | COC(=O)c1cc(N2CCN(CCc3coc4ccc(F)cc34)CC2)c2cc[nH]c2c1 (as salt: oxalate) [Compound 4h, 1-(2-(5-Fluoro-3-benzofuranyl)ethyl)-4-(6-methoxycarbonyl-1H-indol-4-yl)piperazine] | 227 to 228 °C
36 | N#Cc1c[nH]c2cccc(N3CCN(CCc4coc5ccccc45)CC3)c12 (as salt: oxalate) [Compound 4p, 1-(2-(3-Benzofuranyl)ethyl)-4-(3-cyano-1H-indol-4-yl)piperazine] | 221 to 223 °C
37 | Cc1cccc2occ(CCN3CCN(c4cccc5[nH]ccc45)CC3)c12 (as salt: oxalate) [Compound 4r, 1-(1H-Indol-4-yl)-4-(2-(4-methyl-3-benzofuranyl)ethyl)piperazine] | 204 to 206 °C
38 | Clc1ccc2occ(CCN3CCN(c4cccc5[nH]ccc45)CC3)c2c1 (as salt: oxalate) [Compound 4t, 1-(2-(5-Chloro-3-benzofuranyl)ethyl)-4-(1H-indol-4-yl)piperazine] | 200 to 202 °C
39 | Cc1ccc2c(CCN3CCN(c4cccc5[nH]ccc45)CC3)coc2c1 (as salt: oxalate) [Compound 4u, 1-(1H-Indol-4-yl)-4-(2-(6-methyl-3-benzofuranyl)ethyl)piperazine] | 190 to 192 °C
40 | Clc1cccc2c(CCN3CCN(c4cccc5[nH]ccc45)CC3)coc12 (as salt: oxalate) [Compound 4v, 1-(2-(7-Chloro-3-benzofuranyl)ethyl)-4-(1H-indol-4-yl)piperazine] | 216 to 218 °C
